Where “and” joins values, the source holds several entries; their conditions need not be identical. Equal values may be shown once.
Columns and labels:
[1] = molecular target: human D-amino acid oxidase (hDAAO) (Homo sapiens, UniProt P14920); test: In vitro measurement of human D-amino acid oxidase (hDAAO) activity, D-Serine substrate, Amplex Red fluorescence; format: biochemical
[2] = Log P, n-octanol/water partition coefficient, HPLC; format: physicochemical
Procedure: The sample compounds tested in the log P experiments included enriched tannic acid (prepared by the enrichment method 10 of U.S. Ser. No. 10/105,378), compounds 21, 24, 27, 46, and 56. First, n-Octanol and water was saturated with each other to achieve partition equilibrium and the two phases were separated for further use. Sample compounds were dissolved in water and n-octanol phase, respectively. Both phases were mixed by vertical rotation movement. After the water and n-octal phases reached equilibrium state, both phases were analyzed to determine the concentrations of the sample compounds for the determination of log P values. All samples were performed in a Shimadzu CBM-20A FfPLC system. The chromatographic separation was carried out on a 5 μm, Kinetex C18 100 Å LC column (100×4.6 mm). The mobile phase was 0.1% formic acid in water and acetonitrile/Methanol set as gradient. Flow rate used was 1.2 mL/min. Column was at room temperature 20±5° C.
The partition coefficient abbreviated P is calculated based on the concentration in n-octanol divided by the concentration in water. The formula of log P is shown below: […]

Chain of human D-amino acid oxidase (hDAAO) (P14920 whole entry): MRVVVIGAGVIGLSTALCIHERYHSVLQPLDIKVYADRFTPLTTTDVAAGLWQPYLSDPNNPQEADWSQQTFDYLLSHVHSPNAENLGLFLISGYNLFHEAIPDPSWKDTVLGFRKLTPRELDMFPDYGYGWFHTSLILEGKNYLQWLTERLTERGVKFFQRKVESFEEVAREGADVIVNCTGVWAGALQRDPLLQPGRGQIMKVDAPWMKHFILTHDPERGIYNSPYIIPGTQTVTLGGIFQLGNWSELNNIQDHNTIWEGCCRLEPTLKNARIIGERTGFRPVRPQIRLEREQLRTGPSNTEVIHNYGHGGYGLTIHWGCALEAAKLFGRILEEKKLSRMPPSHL

SMILES	IC50 [1]	logP [2]
O=C(OC[C@H]1O[C@H](OC(=O)c2cc(O)c(O)c(OC(=O)c3cc(O)c(O)c(O)c3)c2)[C@H](OC(=O)c2cc(O)c(O)c(OC(=O)c3cc(O)c(O)c(O)c3)c2)[C@@H](OC(=O)c2cc(O)c(O)c(OC(=O)c3cc(O)c(O)c(O)c3)c2)[C@@H]1OC(=O)c1cc(O)c(O)c(OC(=O)c2cc(O)c(O)c(O)c2)c1)c1cc(O)c(O)c(OC(=O)c2cc(O)c(O)c(O)c2)c1 [Compound 21, (2R,3R,4S,5R,6R)-6-(((3,4-dihydroxy-5-((3,4,5-trihydroxybenzoyl)oxy)benzoyl)oxy)methyl)tetrahydro-2H-pyran-2,3,4,5-tetrayl tetrakis(3,4-dihydroxy-5-((3,4,5-trihydroxybenzoyl)oxy)benzoate)]	19.4 nM and 20 nM	1.32
O=C(OC[C@H]1O[C@H](OC(=O)c2cc(O)c(O)c(OC(=O)c3cc(O)c(O)c(OC(=O)c4cc(O)c(O)c(OC(=O)c5cc(O)c(O)c(O)c5)c4)c3)c2)[C@H](OC(=O)c2cc(O)c(O)c(OC(=O)c3cc(O)c(O)c(OC(=O)c4cc(O)c(O)c(OC(=O)c5cc(O)c(O)c(O)c5)c4)c3)c2)[C@@H](OC(=O)c2cc(O)c(O)c(OC(=O)c3cc(O)c(O)c(OC(=O)c4cc(O)c(O)c(OC(=O)c5cc(O)c(O)c(O)c5)c4)c3)c2)[C@@H]1OC(=O)c1cc(O)c(O)c(OC(=O)c2cc(O)c(O)c(OC(=O)c3cc(O)c(O)c(OC(=O)c4cc(O)c(O)c(O)c4)c3)c2)c1)c1cc(O)c(O)c(OC(=O)c2cc(O)c(O)c(OC(=O)c3cc(O)c(O)c(OC(=O)c4cc(O)c(O)c(O)c4)c3)c2)c1 [Compound 27, (2R,3R,4S,5R,6R)-6-(((3-((3,4-dihydroxy-5-((3,4-dihydroxy-5-((3,4,5-trihydroxybenzoyl)oxy)benzoyl)oxy)benzoyl)oxy)-4,5-dihydroxybenzoyl)oxy)methyl)tetrahydro-2H-pyran-2,3,4,5-tetrayl tetrakis(3-((3,4-dihydroxy-5-((3,4-dihydroxy-5-((3,4,5-trihydroxybenzoyl)oxy)benzoyl)oxy)benzoyl)oxy)-4,5-dihydroxybenzoate)]	10.9 nM and 11 nM	0.6
O=C(OC[C@H]1O[C@@H](OC(=O)c2cc(O)c(O)c(OC(=O)c3cc(O)c(O)c(OC(=O)c4cc(O)c(O)c(O)c4)c3)c2)[C@H](OC(=O)c2cc(O)c(O)c(OC(=O)c3cc(O)c(O)c(OC(=O)c4cc(O)c(O)c(O)c4)c3)c2)[C@@H](OC(=O)c2cc(O)c(O)c(OC(=O)c3cc(O)c(O)c(OC(=O)c4cc(O)c(O)c(O)c4)c3)c2)[C@@H]1OC(=O)c1cc(O)c(O)c(OC(=O)c2cc(O)c(O)c(OC(=O)c3cc(O)c(O)c(O)c3)c2)c1)c1cc(O)c(O)c(OC(=O)c2cc(O)c(O)c(OC(=O)c3cc(O)c(O)c(O)c3)c2)c1 [Compound 37, (2S,3R,4S,5R,6R)-6-(((3-((3,4-dihydroxy-5-((3,4,5-trihydroxybenzoyl)oxy)benzoyl)oxy)-4,5-dihydroxybenzoyl)oxy)methyl)tetrahydro-2H-pyran-2,3,4,5-tetrayl tetrakis(3-((3,4-dihydroxy-5-((3,4,5-trihydroxybenzoyl)oxy)benzoyl)oxy)-4,5-dihydroxybenzoate)]	11.8 nM and 12 nM	
O=C(Oc1ccccc1)c1cc(O)c(O)c(OC(=O)c2cc(O)c(O)c(OC(=O)c3cc(O)c(O)c(OC(=O)c4cc(O)c(O)c(OC(=O)c5cc(O)c(O)c(O)c5)c4)c3)c2)c1 [Compound 46, 5-((5-((5-((2,3-dihydroxy-5-(phenoxycarbonyl)phenoxy)carbonyl)-2,3-dihydroxyphenoxy)carbonyl)-2,3-dihydroxyphenoxy)carbonyl)-2,3-dihydroxyphenyl 3,4,5-trihydroxybenzoate]	24.6 nM and 24 nM	2.02
O=C(Oc1ccccc1)c1cc(O)c(O)c(OC(=O)c2cc(O)c(O)c(OC(=O)c3cc(O)c(O)c(OC(=O)c4cc(O)c(O)c(OC(=O)c5cc(O)c(O)c(OC(=O)c6cc(O)c(O)c(OC(=O)c7cc(O)c(O)c(O)c7)c6)c5)c4)c3)c2)c1 [Compound 48, 5-((5-((5-((5-((5-((2,3-dihydroxy-5-(phenoxycarbonyl)phenoxy)carbonyl)-2,3-dihydroxyphenoxy)carbonyl)-2,3-dihydroxyphenoxy)carbonyl)-2,3-dihydroxyphenoxy)carbonyl)-2,3-dihydroxyphenoxy)carbonyl)-2,3-dihydroxyphenyl 3,4,5-trihydroxybenzoate]	17.3 nM and 17 nM	
O=C(Oc1cccc(OC(=O)c2cc(O)c(O)c(OC(=O)c3cc(O)c(O)c(OC(=O)c4cc(O)c(O)c(OC(=O)c5cc(O)c(O)c(OC(=O)c6cc(O)c(O)c(O)c6)c5)c4)c3)c2)c1)c1cc(O)c(O)c(OC(=O)c2cc(O)c(O)c(OC(=O)c3cc(O)c(O)c(OC(=O)c4cc(O)c(O)c(OC(=O)c5cc(O)c(O)c(O)c5)c4)c3)c2)c1 [Compound 51, 1,3-phenylene bis(3-((3-((3-((3,4-dihydroxy-5-((3,4,5-trihydroxybenzoyl)oxy)benzoyl)oxy)-4,5-dihydroxybenzoyl)oxy)-4,5-dihydroxybenzoyl)oxy)-4,5-dihydroxybenzoate)]	8.58 nM and 9 nM	
O=C(Oc1cccc(OC(=O)c2cc(O)c(O)c(OC(=O)c3cc(O)c(O)c(OC(=O)c4cc(O)c(O)c(OC(=O)c5cc(O)c(O)c(OC(=O)c6cc(O)c(O)c(OC(=O)c7cc(O)c(O)c(OC(=O)c8cc(O)c(O)c(O)c8)c7)c6)c5)c4)c3)c2)c1)c1cc(O)c(O)c(OC(=O)c2cc(O)c(O)c(OC(=O)c3cc(O)c(O)c(OC(=O)c4cc(O)c(O)c(OC(=O)c5cc(O)c(O)c(OC(=O)c6cc(O)c(O)c(OC(=O)c7cc(O)c(O)c(O)c7)c6)c5)c4)c3)c2)c1 [Compound 53, 1,3-phenylene bis(3-((3-((3-((3-((3-((3,4-dihydroxy-5-((3,4,5-trihydroxybenzoyl)oxy)benzoyl)oxy)-4,5-dihydroxybenzoyl)oxy)-4,5-dihydroxybenzoyl)oxy)-4,5-dihydroxybenzoyl)oxy)-4,5-dihydroxybenzoyl)oxy)-4,5-dihydroxybenzoate)]	5.8 nM and 6 nM	

Other lines, results leading:

IC50 [1]	logP [2]	SMILES
5.4 nM and 5 nM	1.92	O=C(Oc1cc(OC(=O)c2cc(O)c(O)c(OC(=O)c3cc(O)c(O)c(OC(=O)c4cc(O)c(O)c(OC(=O)c5cc(O)c(O)c(OC(=O)c6cc(O)c(O)c(O)c6)c5)c4)c3)c2)cc(OC(=O)c2cc(O)c(O)c(OC(=O)c3cc(O)c(O)c(OC(=O)c4cc(O)c(O)c(OC(=O)c5cc(O)c(O)c(OC(=O)c6cc(O)c(O)c(O)c6)c5)c4)c3)c2)c1)c1cc(O)c(O)c(OC(=O)c2cc(O)c(O)c(OC(=O)c3cc(O)c(O)c(OC(=O)c4cc(O)c(O)c(OC(=O)c5cc(O)c(O)c(O)c5)c4)c3)c2)c1 [Compound 56, benzene-1,3,5-triyl tris(3-((3-((3-((3,4-dihydroxy-5-((3,4,5-trihydroxybenzoyl)oxy)benzoyl)oxy)-4,5-dihydroxybenzoyl)oxy)-4,5-dihydroxybenzoyl)oxy)-4,5-dihydroxybenzoate)]
2.71 nM and 3 nM		O=C(Oc1cc(OC(=O)c2cc(O)c(O)c(OC(=O)c3cc(O)c(O)c(OC(=O)c4cc(O)c(O)c(OC(=O)c5cc(O)c(O)c(OC(=O)c6cc(O)c(O)c(OC(=O)c7cc(O)c(O)c(OC(=O)c8cc(O)c(O)c(O)c8)c7)c6)c5)c4)c3)c2)cc(OC(=O)c2cc(O)c(O)c(OC(=O)c3cc(O)c(O)c(OC(=O)c4cc(O)c(O)c(OC(=O)c5cc(O)c(O)c(OC(=O)c6cc(O)c(O)c(OC(=O)c7cc(O)c(O)c(OC(=O)c8cc(O)c(O)c(O)c8)c7)c6)c5)c4)c3)c2)c1)c1cc(O)c(O)c(OC(=O)c2cc(O)c(O)c(OC(=O)c3cc(O)c(O)c(OC(=O)c4cc(O)c(O)c(OC(=O)c5cc(O)c(O)c(OC(=O)c6cc(O)c(O)c(OC(=O)c7cc(O)c(O)c(O)c7)c6)c5)c4)c3)c2)c1 [Compound 58, benzene-1,3,5-triyl tris(3-((3-((3-((3-((3-((3,4-dihydroxy-5-((3,4,5-trihydroxybenzoyl)oxy)benzoyl)oxy)-4,5-dihydroxybenzoyl)oxy)-4,5-dihydroxybenzoyl)oxy)-4,5-dihydroxybenzoyl)oxy)-4,5-dihydroxybenzoyl)oxy)-4,5-dihydroxybenzoate)]
53.2 nM and 51 nM		O=C(OC[C@H]1O[C@H](OC(=O)c2cc(O)c(O)c(O)c2)[C@H](OC(=O)c2cc(O)c(O)c(O)c2)[C@@H](OC(=O)c2cc(O)c(O)c(O)c2)[C@@H]1OC(=O)c1cc(O)c(O)c(O)c1)c1cc(O)c(O)c(O)c1 [Compound 101]
54.2 nM and 53 nM		O=C(OC[C@H]1O[C@@H](OC(=O)c2cc(O)c(O)c(O)c2)[C@H](OC(=O)c2cc(O)c(O)c(O)c2)[C@@H](OC(=O)c2cc(O)c(O)c(O)c2)[C@@H]1OC(=O)c1cc(O)c(O)c(O)c1)c1cc(O)c(O)c(O)c1 [Compound 102]
19.4 nM and 20 nM		O=C(OCC1OC(OC(=O)c2cc(O)c(O)c(OC(=O)c3cc(O)c(O)c(O)c3)c2)C(OC(=O)c2cc(O)c(O)c(OC(=O)c3cc(O)c(O)c(O)c3)c2)C(OC(=O)c2cc(O)c(O)c(OC(=O)c3cc(O)c(O)c(O)c3)c2)C1OC(=O)c1cc(O)c(O)c(OC(=O)c2cc(O)c(O)c(O)c2)c1)c1cc(O)c(O)c(OC(=O)c2cc(O)c(O)c(O)c2)c1 (stereo not shown) [Compound 103]

Reference: patent publication US20210214385A1, “INHIBITORS OF D-AMINO ACID OXIDASE AND USES THEREOF” (SyneuRx International (Taiwan) Corp., priority 2018, published 2021)
